From patent US20260176289A1, “SMALL MOLECULE INHIBITORS OF KRAS PROTEINS” (Merck Sharp & Dohme LLC, priority 2022, published 2026)
Where two headings read alike, the source gives them in different places.

Assays:
SW620 cells = assay: Cellular phospho-ERK assay, SW620 cells (homozygous KRAS-G12V); type: cell-based; details: Homo sapiens, read-out: SW620 pERK IC50
How it was run: (§1)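 Readout: p-ERK/total ERK ratio measured by Alpha SureFire Ultra multiplex in lysates after 2 h compound exposure (37 °C, 5% CO2). Dosing ran 10 points, 1:3 dilutions, highest final concentration 30 μM. IC50 values derived by four-parameter logistic regression.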

KRAS-G12D = KRAS-G12D (Homo sapiens, UniProt P01116, G12D); assay: SOS-catalyzed nucleotide exchange assay (Procedure A, TR-FRET), KRAS-G12D; type: biochemical; details: nucleotide exchange, read-out: KRAS G12D GNE IC50
How it was run: (§2)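 Signal ratio (520/495 nm, excitation 340 nm) reports Bodipy-GDP retention on biotinylated RAS after SOS-catalyzed exchange with 3 mM GTP. SOS was 40 nM, except 160 nM for G12V. Room-temperature exchange lasted 60 min (90 min for G12V), following a 60 min compound preincubation.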

KRAS-G13D = KRAS-G13D (Homo sapiens, UniProt P01116, G13D); assay: SOS-catalyzed nucleotide exchange assay (Procedure A, TR-FRET), KRAS-G13D; type: biochemical; details: nucleotide exchange, Procedure A; read-out: KRAS G13D GNE IC50
Description: (§3) Procedure for SOS-Catalyzed Nucleotide Exchange Assay for KRAS-WT, G12C/D/V, G13D, HRAS, and NRAS (Procedure A)
(§4) Recombinant KRAS-G12C protein used in this assay has an additional triple mutation (C51S/C80L/C118S). Whereas KRAS-WT, G12D/V, G13D, HRAS and NRAS are in context of their WT protein sequence background. Specifically, the SOS-catalyzed nucleotide exchange assay utilizes a preformed TR-FRET complex containing a specific biotinylated RAS protein (KRAS-WT, G12C/V/D, G13D, HRAS, NRAS; described above) with Bodipy-GDP, and Terbium-streptavidin. Compounds are preincubated with this complex for 60 minutes. Subsequently, recombinant human SOS protein and unlabeled GTP are added to initiate the exchange reaction. Small molecule inhibitors stabilize the Bodipy-GDP complex whereas the untreated protein rapidly exchanges Bodipy-GDP for unlabeled GTP resulting in reduced TR-FRET signal.
(§5) To assemble the preformed TR-FRET complexes, each biotinylated RAS protein is diluted to 2 μM in an EDTA Buffer (20 mM HEPES pH 7.5, 50 mM sodium chloride, 10 mM EDTA, and 0.01% Tween) and incubated at room temperature for one hour. This mixture is then further diluted to 90 nM in an Assay Buffer (20 mM HEPES pH 7.5, 150 mM sodium chloride, 10 mM magnesium chloride, and 0.005% Tween) containing 15 nM of Terbium-Streptavidin (Invitrogen, catalog #PV3577) and 900 nM of Bodipy-GDP (Invitrogen, catalog #G22360) and incubated at room temperature for six hours. It should be noted that this preformed TR-FRET complex for each of the RAS protein were made ahead of time, aliquoted and stored at −80° C. until the day of the experiment.
(§6) Each test compound (10 mM stock in DMSO) is diluted in DMSO to make a final-10-point, 3-fold dilution and is acoustically dispensed into a 384-well assay plate (Corning, catalog #3820) using an Echo 550 (Labcyte). Each well of the assay plate receives 3 μL of a specific 3×RAS preformed TR-FRET complex and 3 μL of Assay Buffer and is incubated at room temperature for 60 minutes (preincubation time). Each well then receives 3 μL of 3×recombinant human SOS protein and GTP (Sigma, G8877) in Assay Buffer and is incubated at room temperature for 30 minutes (G13D), 60 minutes (KRAS WT/G12C/D, H/NRAS) or 90 minutes for G12V. The final reaction in each well of 9 μL consists of 3 mM GTP, specific Ras and SOS proteins in the following concentrations: KRAS-G12C/SOS=3 nM/40 nM, KRAS-WT and G12D/SOS=1 nM/40 nM, KRAS-G12V/SOS=1.25 nM/160 nM. KRAS-G13D/SOS=1.25 nM/0 nM, HRAS and NRAS=1.25 nM/40 nM.
(§7) The time-resolved fluorescence resonance energy transfer (TR-FRET) signal is measured on an Envision (PerkinElmer) plate reader: Excitation filter=340 nm; emission 1=495 nm; emission2=520 nm; dichroic mirror=D400/D505; delay time=[…]. The signal of each well is determined as the ratio of the emission at 520 nm to that at 495 nm. Percent effect of each well is determined after normalization to control wells containing DMSO (no effect) or a saturating concentration of inhibitor (max effect). The apparent effect as a function of compound concentration is fit to a four-parameter logistic equation.

MKN-1 cells = assay: Cellular phospho-ERK assay, MKN-1 cells (amplified wild-type KRAS); type: cell-based; details: Homo sapiens, read-out: MKN1 pERK IC50
How it was run: as §1

[1] = molecular target: KRAS-G12C (C51S/C80L/C118S) (Homo sapiens, UniProt P01116, C118S/C51S/C80L/G12C); assay: SOS-catalyzed nucleotide exchange assay (Procedure A, TR-FRET), KRAS-G12C; type: biochemical; details: nucleotide exchange, Procedure A; read-out: KRAS G12C GNE IC50
Description: as §3, §4, §5, §6, §7

KRAS-G12V = KRAS-G12V (Homo sapiens, UniProt P01116, G12V); assay: SOS-catalyzed nucleotide exchange assay (Procedure A, TR-FRET), KRAS-G12V; type: biochemical; details: nucleotide exchange, read-out: KRAS G12V GNE IC50
How it was run: as §2

AsPC-1 cells = assay: Cellular phospho-ERK assay, AsPC-1 cells (homozygous KRAS-G12D); type: cell-based; details: Homo sapiens, ASPC1, 2 h, read-out: AsPC1 pERK IC50
How it was run: as §1

KRAS-WT = KRAS-WT (Homo sapiens, UniProt P01116); assay: SOS-catalyzed nucleotide exchange assay (Procedure A, TR-FRET), KRAS-WT; type: biochemical; details: nucleotide exchange, read-out: KRAS WT GNE IC50
How it was run: as §2

Sequence of KRAS-WT (P01116 with tags, fused parts or gaps isoform P01116-2): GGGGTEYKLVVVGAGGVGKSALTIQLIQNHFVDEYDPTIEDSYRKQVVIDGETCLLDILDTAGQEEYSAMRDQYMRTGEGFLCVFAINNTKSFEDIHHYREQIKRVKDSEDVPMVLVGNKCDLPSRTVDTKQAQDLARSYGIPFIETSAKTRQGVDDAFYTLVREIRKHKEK
Sequence of KRAS-G12D (P01116 with tags, fused parts or gaps isoform P01116-2 G12D): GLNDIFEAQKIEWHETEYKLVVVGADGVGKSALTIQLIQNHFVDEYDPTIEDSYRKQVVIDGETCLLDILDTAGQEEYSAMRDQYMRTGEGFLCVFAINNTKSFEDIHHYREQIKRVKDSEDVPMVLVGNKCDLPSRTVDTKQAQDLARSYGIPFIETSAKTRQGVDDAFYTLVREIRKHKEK
Sequence of KRAS-G12V (P01116 with tags, fused parts or gaps isoform P01116-2 G12V): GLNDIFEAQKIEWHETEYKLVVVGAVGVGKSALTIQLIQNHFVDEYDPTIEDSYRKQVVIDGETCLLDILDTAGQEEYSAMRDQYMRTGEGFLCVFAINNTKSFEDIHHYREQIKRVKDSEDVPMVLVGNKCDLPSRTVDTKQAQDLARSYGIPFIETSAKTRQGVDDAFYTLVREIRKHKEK
Sequence of KRAS-G13D (P01116 with tags, fused parts or gaps isoform P01116-2 G13D): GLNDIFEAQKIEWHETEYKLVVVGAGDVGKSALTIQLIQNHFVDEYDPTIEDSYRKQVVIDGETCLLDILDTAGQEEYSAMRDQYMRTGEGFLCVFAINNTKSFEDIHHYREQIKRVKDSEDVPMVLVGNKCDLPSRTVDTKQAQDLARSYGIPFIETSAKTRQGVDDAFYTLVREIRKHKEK
Sequence of KRAS-G12C (C51S/C80L/C118S) (P01116 with tags, fused parts or gaps isoform P01116-2 G12C/C51S/C80L/C118S): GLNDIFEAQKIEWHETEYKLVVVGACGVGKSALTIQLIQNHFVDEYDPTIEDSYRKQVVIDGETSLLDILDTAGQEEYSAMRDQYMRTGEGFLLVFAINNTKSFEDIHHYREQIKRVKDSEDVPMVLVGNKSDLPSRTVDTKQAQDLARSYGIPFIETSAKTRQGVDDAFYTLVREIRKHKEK

Row | Structure (SMILES) | IC50 (SW620 cells; SW-620, 2 hours compound incubation) [nM] | IC50 (KRAS-G12D) [nM] | IC50 (KRAS-G13D) [nM] | IC50 (MKN-1 cells; 2 hours compound incubation) [nM] | IC50 [1] [nM] | IC50 (KRAS-G12V) [nM] | IC50 (AsPC-1 cells; 2 hours compound incubation) [nM] | IC50 (KRAS-WT) [nM] | IC50 (SW620 cells; SW-620, KRAS-G12V, 2 hours) [nM] | IC50 (MKN-1 cells; amplified wild-type KRAS, 2 hours) [nM] | IC50 (AsPC-1 cells; KRAS-G12D, 2 hours) [nM]
1 | [2H]C1([2H])CC[C@]2(COc3nc(N4CCOC[C@@](C)(O)C4)c4c(n3)sc3c(-c5c(C6CC6)c(Cl)cc6[nH]ncc56)nccc34)N1C[C@H](F)C2([2H])[2H] [Ex-210, (6S)-4-(8-(6-chloro-5-cyclopropyl-1H-indazol-4-yl)-2-(((2R,7aS)-2-fluoro-tetrahydro-1H-pyrrolizin-7a(5H)-yl-1,1,5,5-d4)meth-oxy)pyrido[4′,3′: 4,5]thieno[2,3-d]pyrimidin-4-yl)-6-methyl-1,4-oxaze-pan-6-ol] | 12.3 | 4.71 | 12.7 | 20.1 | 13.4 | 14.1 | 35 | 12.2 | – | – | –
2 | C[C@@]1(O)COCCN(c2nc(OC[C@@]34CCCN3C/C(=C\F)C4)nc3sc4c(-c5c(C6(F)CC6)c(C(F)(F)F)cc6[nH]ncc56)nccc4c23)C1 [Ex-56, (6S)-4-(8-(5-(1-fluorocyclopropyl)-6-(trifluoromethyl)-1H-indazol-4-yl)-2-(((S,Z)-2-(fluoromethylene)tetrahy-dro-1H-pyrrolizin-7a(5H)-yl)methoxy)pyrido[4′,3′:4,5]thi-eno[2,3-d]pyrimidin-4-yl)-6-methyl-1,4-oxazepan-6-ol] | – | 9.15 | 22.6 | – | 128 | 32.6 | – | 26.5 | 57.5 | 45.6 | 48.9
3 | Cc1cc2[nH]ncc2c(-c2nccc3c2sc2nc(OC[C@@]45CCCN4C[C@H](F)C5)nc(N4CCOC[C@@](C)(O)C4)c23)c1-c1ccco1 [Ex-146, (6S)-4-(2-(((2R, 7aS)-2-fluorotetra-hydro-1H-pyrrol-izin-7a(5H)-yl)meth-oxy)-8-(5-(furan-2-yl)-6-methyl-1H-indazol-4-yl)pyrido [4′,3′:4,5]thieno[2,3-d]pyrimidin-4-yl)-6-methyl-1,4-oxaze-pan-6-ol] | – | 15.3 | 29.4 | – | 77.6 | 22.1 | 153 | 58.2 | – | – | –
4 | Cc1cc2[nH]ncc2c(-c2nccc3c2sc2nc(OC[C@@]45CCCN4C[C@H](F)C5)nc(N4CCOC[C@@](C)(O)C4)c23)c1C1CCCC1 [Ex-147, (6S)-4-(8-(5-cyclo-pentyl-6-methyl-1H-indazol-4-yl)-2-(((2R,7aS)-2-fluoro-tetrahydro-1H-pyr-rolizin-7a(5H)-yl)-methoxy)pyrido [4′,3′:4,5]thieno[2,3-d]pyrimidin-4-yl)-6-methyl-1,4-oxaze-pan-6-ol] | – | 284 | 936 | – | 438 | 293 | 1260 | 670 | – | – | –
5 | Cc1cc2[nH]ncc2c(-c2nccc3c2oc2nc(OC[C@]4(CN(C)C)CC4(F)F)nc(N4CCOC[C@@](C)(O)C4)c23)c1C(F)F [Ex-292, (6S)-4-(8-(5-(difluoromethyl)-6-methyl-1H-indazol-4-yl)-2-(((R)-1-((dimethylamino)methyl)-2,2-difluorocyclopropyl)meth-oxy)pyrido[4′,3′:4,5]furo[2,3-d]pyrimidin-4-yl)-6-methyl-1,4-oxazepan-6-ol] | – | 175 | 308 | – | 76.9 | 134 | – | 603 | – | – | 2320
6 | CN(C)C[C@@]1(COc2nc(N3CCOC[C@@](C)(O)C3)c3c(n2)oc2c(-c4c(C5CC5)c(Cl)cc5[nH]ncc45)nccc23)CC1(F)F [Ex-294, (6S)-4-(8-(6-chloro-5-cyclopropyl-1H-indazol-4-yl)-2-(((R)-1-((dimethylamino)methyl)-2,2-difluorocyclopropyl)meth-oxy)pyrido[4′,3′:4,5]furo[2,3-d]pyrimidin-4-yl)-6-methyl-1,4-oxazepan-6-ol] | – | 113 | 106 | – | 30.1 | 125 | – | 262 | – | – | 295
7 | Cc1cc2[nH]ncc2c(-c2nccn3c2cc2nc(OC[C@]4(CN(C)C)CC4(F)F)nc(N4CCOC[C@@](C)(O)C4)c23)c1C1CC1 [Ex-296, (S)-4-(9-(5-cyclopropyl-6-methyl-1H-indazol-4-yl)-2-(((R)-1-((dimethylamino)meth-yl)-2,2-difluorocyclopropyl)methoxy)pyrazino [1′,2′:1,5]pyrrolo[3,2-d]pyrimidin-4-yl)-6-methyl-1,4-oxazepan-6-ol] | – | 48.7 | 80.1 | – | 43.9 | 101 | – | 167 | – | – | 316
8 | C/C=C(\C)c1c(C)cc2[nH]ncc2c1-c1nccc2c1sc1nc(OC[C@@]34CCCN3C[C@H](F)C4)nc(N3CCOC[C@@](C)(O)C3)c12 [Ex-65, (6S)-4-(8-(5-((E)-but-2-en-2-yl)-6-methyl-1H-indazol-4-yl)-2-(((2R,7aS)-2-fluorotetrahydro-1H-pyrrolizin-7a(5H)-yl)methoxy)pyrido[4′,3′:4,5]thi-eno[2,3-d]pyrimidin-4-yl)-6-methyl-1,4-oxazepan-6-ol] | – | 69.3 | 172 | – | 362 | 65.3 | – | 184 | – | – | 560
9 | Cc1cc2[nH]ncc2c(-c2nccc3c2sc2nc(OC[C@@]45CCCN4C[C@H](F)C5)nc(NC4CNC(=O)C4)c23)c1C(F)(F)F (stereo partly drawn) [Ex-192, 4-((2-(((2R,7aS)-2-fluoro-tetrahydro-1H-pyrrolizin-7a(5H)-yl)methoxy)-8-(6-methyl-5-(trifluorometh-yl)-1H-indazol-4-yl)pyrido [4′,3′:4,5]thieno[2,3-d]pyrimidin-4-yl)amino)-pyrrolidin-2-one] | – | 283 | 409 | – | 121 | 192 | 30000 | 418 | – | – | –
